# Experimental data as given in the supplement of paper PMC10307832.
# Legend:
# Experiment in all cases: relative viability (nuclei count vs DMSO), 5 days (fraction); higher = more cells survive
# [1] = compound: C/C(=N\NC(=S)N1CCC1)/C2=CC=CC=N2 + CS(=O)(=O)N1CCN(Cc2cc3nc(-c4cccc5[nH]ncc45)nc(N4CCOCC4)c3s2)CC1 [Pictilisib] (partner 1 µM)
# Method in brief: (§1)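 Values are medians from duplicate plates. Each reflects relative viability, defined as the nuclei count of treated wells over that of vehicle wells. Lung cancer cell lines in 1536-well plates were pin-tool dosed one day after seeding with one drug alone or with a fixed anchor-drug dose plus five library-drug doses (not always all listed) in √10 steps, then fixed, stained and imaged at 4× after 5 days.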
# [2] = compound: C/C(=N\NC(=S)N1CCC1)/C2=CC=CC=N2 + Cc1nc(NC(=O)N2CCC[C@H]2C(N)=O)sc1-c1ccnc(C(C)(C)C(F)(F)F)c1 [Alpelisib] (partner 2 µM)
# Method in brief: as §1
# [3] = compound: C/C(=N\NC(=S)N1CCC1)/C2=CC=CC=N2 + N=C(N)NC(=N)NCCc1ccccc1 [Phenformin] (partner 250 µM)
# Method in brief: as §1
# [4] = compound: C/C(=N\NC(=S)N1CCC1)/C2=CC=CC=N2 + NC(=O)Nc1cc(-c2cccc(F)c2)sc1C(=O)N[C@H]1CCCNC1 [AZD7762] (partner 0.2 µM)
# Method in brief: as §1
Cell Line,relative viability ([1]; first compound 0.05 µM),relative viability ([1]; first compound 0.1581 µM),relative viability ([1]; first compound 0.5 µM),relative viability ([1]; first compound 1.581 µM),relative viability ([1]; first compound 5 µM),relative viability ([2]; first compound 0.05 µM),relative viability ([2]; first compound 0.1581 µM),relative viability ([2]; first compound 0.5 µM),relative viability ([2]; first compound 1.581 µM),relative viability ([2]; first compound 5 µM),relative viability ([3]; first compound 0.05 µM),relative viability ([3]; first compound 0.1581 µM),relative viability ([3]; first compound 0.5 µM),relative viability ([3]; first compound 1.581 µM),relative viability ([3]; first compound 5 µM),relative viability ([4]; first compound 0.05 µM),relative viability ([4]; first compound 0.1581 µM),relative viability ([4]; first compound 0.5 µM),relative viability ([4]; first compound 1.581 µM),relative viability ([4]; first compound 5 µM)
LK-2,0.146,0.263,0.268,0.198,0.238,0.182,0.28,0.283,0.176,0.243,0.119,0.185,0.13,0.085,0.151,0.0945,0.0875,0.049,0.086,0.0796
LOU-NH91,0.367,0.428,0.439,0.374,0.356,0.485,0.442,0.407,0.382,0.424,0.371,0.403,0.352,0.262,0.419,0.46,0.548,0.479,0.294,0.428
LU99A,0.12,0.106,0.0914,0.146,0.122,0.174,0.0993,0.112,0.142,0.135,0.163,0.189,0.145,0.143,0.178,0.153,0.12,0.125,0.107,0.14
LXF-289,0.192,0.151,0.16,0.103,0.123,0.539,0.307,0.278,0.147,0.141,0.22,0.203,0.202,0.2,0.0793,0.212,0.266,0.218,0.124,0.116
NCI-H23,0.132,0.16,0.159,0.132,0.117,0.128,0.148,0.141,0.128,0.155,0.144,0.164,0.185,0.117,0.139,0.0952,0.131,0.124,0.096,0.131
NCI-H322M,0.23,0.38,0.275,0.263,0.287,0.318,0.844,0.186,0.258,0.254,0.332,0.375,0.249,0.255,0.311,0.316,0.333,0.381,0.37,0.414
NCI-H358,0.178,0.214,0.19,0.142,0.163,0.196,0.174,0.142,0.118,0.155,0.0917,0.112,0.101,0.0719,0.107,0.174,0.217,0.16,0.15,0.18
NCI-H441,0.127,0.101,0.115,0.108,0.128,0.159,0.173,0.174,0.166,0.146,0.204,0.16,0.197,0.156,0.187,0.264,0.178,0.173,0.144,0.153
NCI-H460,0.108,0.12,0.0972,0.13,0.0516,0.0117,0.0186,0.0138,0.0126,0.0076,0.0303,0.0322,0.0348,0.0156,0.0113,0.0608,0.0607,0.0479,0.0377,0.0347
NCI-H596,0.251,0.257,0.223,0.212,0.277,0.371,0.256,0.267,0.227,0.313,0.301,0.391,0.324,0.239,0.259,0.331,0.321,0.312,0.244,0.297
NCI-H647,0.0857,0.0882,0.104,0.0844,0.15,0.135,0.0873,0.114,0.0898,0.0916,0.0392,0.0555,0.125,0.0761,0.0797,0.0396,0.0606,0.048,0.0361,0.0379
NCI-H650,0.234,0.235,0.25,0.201,0.202,0.187,0.252,0.271,0.225,0.169,0.23,0.277,0.208,0.247,0.189,0.225,0.209,0.199,0.223,0.143
NCI-H727,0.236,0.195,0.154,0.15,0.139,0.191,0.152,0.19,0.175,0.147,0.29,0.314,0.341,0.375,0.382,0.265,0.249,0.311,0.228,0.312
NCI-H838,0.172,0.207,0.167,0.102,0.157,0.243,0.211,0.189,0.189,0.172,0.163,0.171,0.175,0.123,0.139,0.579,0.684,0.653,0.616,0.637
NCI-H1355,0.198,0.165,0.178,0.172,0.148,0.205,0.545,0.149,0.145,0.156,0.266,0.295,0.251,0.263,0.2,0.168,0.17,0.135,0.146,0.155
NCI-H1395,0.386,0.371,0.305,0.343,0.377,0.4,0.354,0.423,0.354,0.463,0.279,0.349,0.364,0.307,0.389,0.287,0.326,0.402,0.35,0.406
NCI-H1437,0.0885,0.101,0.0858,0.0683,0.0721,0.114,0.127,0.0974,0.0875,0.0851,0.132,0.182,0.182,0.162,0.159,0.353,0.278,0.243,0.239,0.176

Cell Line,relative viability ([1]; first compound 0.05 µM),relative viability ([1]; first compound 0.1581 µM),relative viability ([1]; first compound 0.5 µM),relative viability ([1]; first compound 1.581 µM),relative viability ([1]; first compound 5 µM),relative viability ([2]; first compound 0.05 µM),relative viability ([2]; first compound 0.1581 µM),relative viability ([2]; first compound 0.5 µM),relative viability ([2]; first compound 1.581 µM),relative viability ([2]; first compound 5 µM),relative viability ([3]; first compound 0.05 µM),relative viability ([3]; first compound 0.1581 µM),relative viability ([3]; first compound 0.5 µM),relative viability ([3]; first compound 1.581 µM),relative viability ([3]; first compound 5 µM),relative viability ([4]; first compound 0.05 µM),relative viability ([4]; first compound 0.1581 µM),relative viability ([4]; first compound 0.5 µM),relative viability ([4]; first compound 1.581 µM),relative viability ([4]; first compound 5 µM)
NCI-H1651,0.0849,0.0897,0.0884,0.0807,0.0572,0.149,0.112,0.138,0.0797,0.0683,0.176,0.169,0.185,0.0924,0.0954,0.0886,0.101,0.0929,0.0496,0.0554
NCI-H1666,0.158,0.22,0.234,0.176,0.2,0.198,0.208,0.23,0.212,0.224,0.467,0.462,0.419,0.433,0.361,0.304,0.398,0.352,0.3,0.331
NCI-H1734,0.15,0.151,0.149,0.115,0.139,0.169,0.185,0.147,0.135,0.151,0.147,0.206,0.194,0.12,0.132,0.124,0.128,0.139,0.0896,0.101
NCI-H1755,0.171,0.168,0.162,0.157,0.136,0.471,0.834,0.172,0.201,0.187,0.328,0.311,0.288,0.33,0.271,0.357,0.262,0.253,0.256,0.292
NCI-H1792,0.193,0.149,0.122,0.0959,0.0891,0.457,0.373,0.153,0.114,0.085,0.122,0.096,0.108,0.063,0.0674,0.107,0.0965,0.0559,0.0274,0.0333
NCI-H1793,0.195,0.203,0.163,0.172,0.15,0.245,0.179,0.169,0.168,0.191,0.131,0.201,0.188,0.147,0.156,0.129,0.199,0.104,0.116,0.142
NCI-H1915,0.208,0.189,0.17,0.144,0.153,0.501,1.08,0.174,0.157,0.143,0.253,0.231,0.221,0.178,0.179,0.16,0.114,0.134,0.119,0.122
NCI-H1944,0.229,0.305,0.241,0.182,0.182,0.669,0.794,0.307,0.191,0.133,0.119,0.144,0.127,0.145,0.146,0.227,0.169,0.145,0.102,0.129
NCI-H1975,0.123,0.136,0.127,0.131,0.136,0.137,0.137,0.123,0.136,0.154,0.187,0.187,0.159,0.12,0.133,0.308,0.239,0.225,0.234,0.24
NCI-H1993,0.743,0.673,0.765,0.676,0.692,0.67,0.57,0.555,0.505,0.489,0.524,0.495,0.627,0.581,0.526,0.302,0.372,0.387,0.373,0.317
NCI-H2085,0.27,0.301,0.353,0.326,0.296,0.288,0.27,0.314,0.282,0.272,0.198,0.297,0.243,0.178,0.239,0.263,0.278,0.293,0.223,0.271
NCI-H2087,0.302,0.219,0.258,0.205,0.153,0.24,0.196,0.246,0.141,0.151,0.141,0.156,0.166,0.0953,0.0819,0.193,0.16,0.249,0.118,0.15
NCI-H2126,0.247,0.267,0.254,0.227,0.216,0.327,0.748,0.224,0.218,0.186,0.396,0.407,0.364,0.316,0.381,0.2,0.19,0.214,0.189,0.157
NCI-H2170,0.158,0.188,0.178,0.192,0.167,0.747,0.731,0.177,0.173,0.17,0.263,0.26,0.22,0.222,0.153,0.298,0.178,0.153,0.126,0.1
NCI-H2347,0.275,0.311,0.286,0.275,0.253,0.312,0.254,0.296,0.274,0.352,0.159,0.195,0.202,0.208,0.273,0.192,0.235,0.218,0.198,0.244
NCI-H2405,0.185,0.206,0.232,0.209,0.275,0.179,0.198,0.276,0.202,0.199,0.21,0.235,0.24,0.199,0.262,0.215,0.245,0.253,0.186,0.23
